Activity calls are given as the source filed them.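 How the source made its calls: active means total score of at least 50 of 100, built from tracer displacement at 10 µM, potency and curve span; inactive means total score under 50.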

The text below walks through data of PubChem BioAssay AID1223 (NMMLSC, 2008).

The target of the experiment is Estrogen receptor (Homo sapiens) (UniProt P03372). Put plainly: ERalpha binding competitors, concentration series, dose response, cell-based, Cos7 ERalpha-GFP, flow cytometry (AID 1223). Particulars: E2-Alexa633 competitive binding. A general note: A flow cytometer gives signals particle by particle.
Sequence of Estrogen receptor (Homo sapiens) (P03372 whole entry, looked up): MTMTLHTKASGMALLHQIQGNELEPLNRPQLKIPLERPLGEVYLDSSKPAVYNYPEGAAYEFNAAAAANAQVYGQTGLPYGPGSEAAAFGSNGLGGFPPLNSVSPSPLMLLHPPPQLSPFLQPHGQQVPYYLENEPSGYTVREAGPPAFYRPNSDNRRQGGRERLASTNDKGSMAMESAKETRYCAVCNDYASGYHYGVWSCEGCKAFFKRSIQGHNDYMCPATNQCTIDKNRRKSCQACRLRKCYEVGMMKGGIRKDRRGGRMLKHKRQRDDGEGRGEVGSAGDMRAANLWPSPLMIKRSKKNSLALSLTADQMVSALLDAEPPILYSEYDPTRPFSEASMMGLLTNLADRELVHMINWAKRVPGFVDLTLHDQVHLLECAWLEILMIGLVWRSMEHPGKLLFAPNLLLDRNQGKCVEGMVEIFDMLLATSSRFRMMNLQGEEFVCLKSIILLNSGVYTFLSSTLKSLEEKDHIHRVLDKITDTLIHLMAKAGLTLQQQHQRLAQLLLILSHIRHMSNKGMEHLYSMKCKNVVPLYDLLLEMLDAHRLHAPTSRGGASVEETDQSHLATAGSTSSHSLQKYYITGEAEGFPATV

Turning to `CCn1c(=NC(=O)c2ccc(N3C(=O)CCC3=O)cc2)sc2c(OC)ccc(OC)c21`, the EC50 (in general, the midpoint of the concentration-response curve) is > 10 µM (inactive).
As to `CCNC(=O)c1ccc2c(c1)C1C3CCC(C3)C1C(c1ccccc1)N2` (stereo unspecified), where the note is “at 10 µM (top of the series)”, the “fluorescent ligand binding remaining” value was “inactive”.
On the same count and under the same terms, with `CCc1nc2sc3ccccc3c(=O)c2c(=O)n1Cc1ccco1` the entry was “inactive”; with `Nc1ncnc2c1ncn2C1CCC(CO)C(O)C1` (stereo unspecified), “inactive”; with `CC(=O)c1ccc2c(c1)C1C=CCC1C(c1ccc(S(=O)(=O)N3CCOCC3)cc1)N2` (stereo unspecified), “inactive”.
For the compound `Cc1cc(C)c2c(c1)NC(c1cc3c(cc1Br)OCO3)C1CC=CC21` (stereo unspecified), the “fluorescent ligand binding remaining” value (at 10 µM (top of the series)) was “inactive”.
Still for that read-out and setting: with `COc1ccc(NC(=O)C(c2ccccc2)N(C)C(=O)c2ccc(=O)[nH]c2)cc1` (stereo unspecified) the figure was 50.7%; with `Cc1ccc(C(=O)N/N=C/c2ccc([N+](=O)[O-])s2)cc1`, “inactive”.
In the case of `CC(=O)Nc1ccc(OC(=O)CC2SC(=O)NC2=O)cc1` (stereo unspecified), where the note is “at 10 µM (top of the series)”, the “fluorescent ligand binding remaining” value was “inactive”.
On to `O=C(O)c1ccc2c(c1)C1C(Cl)C(Sc3ccccc3[N+](=O)[O-])CC1C(c1cccc([N+](=O)[O-])c1)N2` (stereo unspecified), for which the “fluorescent ligand binding remaining” value (at 10 µM (top of the series)) was “inactive”.
Same read-out and setting: with `COc1ccc(/C=N/NC(=O)c2nc(-c3ccccc3)cc(-c3ccccc3)n2)cc1O` the figure was 44.4%; with `O=C(c1cc2ncc(Br)cn2n1)N1CCN(C(=O)c2ccco2)CC1`, “inactive”.
For `C[C@H]1CCC[C@@H](O)CCC/C=C/c2cc(O)cc(O)c2C(=O)O1`, the “fluorescent ligand binding remaining” value (at 10 µM (top of the series)) is “inactive”.
Same read-out and setting: with `CCCCCCNC(=O)c1cc(-c2ccco2)nc2ccccc12` the entry was “inactive”.
The same measure, in the same setting: the result for `CCC(=O)Oc1ccc(/C(CC)=C(\CC)c2ccc(OC(=O)CC)cc2)cc1` reads 22.8%.
In the case of `O=C(O)c1ccc([N+](=O)[O-])c2c1NC(c1ccccc1)C1CC=CC21` (stereo unspecified), the “fluorescent ligand binding remaining” value (at 100 µM (top of the series)) is “inactive”.
In the case of `Oc1ccc(-c2nc(-c3ccc(O)c(O)c3)cs2)cc1`, the “fluorescent ligand binding remaining” value (at 10 µM (top of the series)) was “inactive”.
Same read-out and setting: with `CCn1nnc(NC(=O)CSc2ccc(Cl)cc2)n1` the figure was 68.5%; with `C/C=C(/C(=C/C)c1ccc(O)cc1)c1ccc(O)cc1`, “inactive”; with `Nc1ccc(-c2nc3ccc([N+](=O)[O-])cc3[nH]2)cc1`, 63.9%.
Still for that read-out and setting: with `Cc1oc2cc(O)ccc2c(=O)c1Oc1ccccc1` the figure was 42%; with `Cc1cc(-c2nn3c(-c4ccccc4)nnc3s2)c2ccccc2n1`, “inactive”; with `CCc1ccc(-c2nn(-c3ccccc3)cc2CSC(=N)N)cc1`, “inactive”.
For the compound `COc1cccc(C2Nc3c(F)cc(Br)cc3C3C=CCC32)c1OC` (stereo unspecified), for the setting “at 10 µM (top of the series)”, the “fluorescent ligand binding remaining” value was “inactive”.
Same read-out and setting: the result for `O=S(=O)(NCCc1csc(-c2cccnc2)n1)c1ccc(Cl)s1` reads “inactive”; that for `Cc1ccc(-n2c(=O)c(C#N)cc3c(=O)n4cccc(C)c4nc32)cc1`, “inactive”.
`O=C1/C(=C\c2ccco2)SC(=S)N1c1ccc(O)cc1`: the “fluorescent ligand binding remaining” value (at 10 µM (top of the series)) was “inactive”.
Same read-out and setting: with `Cc1nn(-c2ccccc2)c(/N=C/c2ccc(O)cc2)c1-c1ccccc1` the entry was “inactive”; with `C[C@]12CC[C@@H]3c4ccc(O)cc4C(=O)C[C@H]3[C@@H]1CC[C@@H]2O`, “inactive”.
Same read-out and setting: the result for `Oc1ccc(-c2nc3ccc4ccccc4c3c3c2CCC3)cc1O` reads “inactive”; that for `O=C(Cc1cccs1)Nc1ccc(S(=O)(=O)Nc2ncccn2)cc1`, “inactive”; that for `Cc1cc([N+](=O)[O-])c2c(c1C)C1C=CCC1C(c1ccccn1)N2` (stereo unspecified), 27.9%.
For the compound `CCCCOC(=O)c1c(C)oc2ccc(NS(=O)(=O)c3ccc4c5c(cccc35)C(=O)N4)cc12`, for the setting “at 10 µM (top of the series)”, the “fluorescent ligand binding remaining” value is “inactive”.
For the compound `N=C1C(c2nc3ccccc3[nH]2)=C(O)CN1c1ccc(CC(=O)O)cc1`, where the note is “at 10 µM (top of the series)”, the “fluorescent ligand binding remaining” value was “inactive”.
Turning to `CCC(=O)Oc1ccc(C(CC)C(CC)c2ccc(OC(=O)CC)cc2)cc1` (stereo unspecified), where the note is “at 10 µM (top of the series)”, the fluorescent ligand binding remaining was 19.9%.
For `O=C1NC(c2ccc(Br)cc2)Nc2sc3c(c21)CCC3` (stereo unspecified), the “fluorescent ligand binding remaining” value (at 10 µM (top of the series)) was “inactive”.
